Data as given in paper PMC8037182, “Solvothermal Synthesis of Multiple Dihydropyrimidinones at a Time as Inhibitors of Eg5” (Molecules, 2021).

Test system: Hela cell line
Assay: Cytotoxicity MTS assay, Hela cell line
Format: cell-based
Conditions: for OD490 value, Mean / OD490 value, Well 1 / OD490 value, Well 2 / OD490 value, Well 3: Hela cell line, MTS; for IC50: MTS assay, 24 h exposure
Procedure: The positive compounds (IC50 < 100 μM) obtained from the primary Eg5 motor protein ATPase assay were tested for antiproliferative activity in vitro against Caco-2 cell line, Hela cell line, L929 cell line and T24 cell line by performing MTS assay. Cells were introduced into 96-well plates at a density of 1000 cells per well. After 24 h incubation, the cells were exposed with compounds at final concentrations ranging from 0.5 to 100 µM for 24 h. DMSO was used at a final concentration of 0.025% as blank control, monastrol was used as the positive control. Then 20 µL (CellTiter 96® AQueous One Solution Promega, Madison, WI, USA) reagent was added in each well. After 2 h at 37 °C in a 80% humidified, 5% CO2 atmosphere, the absorbance at 490 nm was recorded using a microplate reader (BIO-RAD iMark^TM). The results were obtained in three independent duplicate experiments. The primary data were shown in Supplementary Materials Tables S4–S7. The IC50 values for these compounds were calculated from a non-linear regression graph plotted between the percentage of cell viability and concentration with SPSS17.0 software.

With CCOC(=O)c1[nH]c(C2NC(=O)NC(C)=C2C(=O)Nc2ccccc2C)c(C(=O)OC)c1C (centres unmarked) [D4] the “OD490 value, Mean” value (0.5μM, first assay) was 2.5619, the “OD490 value, Well 1” value (0.5μM, first assay) was 2.3169 and the “OD490 value, Well 2” value (0.5μM, first assay) was 2.6787. The “OD490 value, Well 3” value (0.5μM, first assay) was 2.6902, the “OD490 value, Mean” value (0.5μM, second assay) was 2.6585 and the “OD490 value, Well 1” value (0.5μM, second assay) was 2.7756. For the same compound, the “OD490 value, Well 2” value (0.5μM, second assay) was 2.2036, the “OD490 value, Well 3” value (0.5μM, second assay) was 2.9963 and the “OD490 value, Mean” value (0.5μM, third assay) was 2.6298. For the same compound, the “OD490 value, Well 1” value (0.5μM, third assay) was 2.6541, the “OD490 value, Well 2” value (0.5μM, third assay) was 2.5689 and the “OD490 value, Well 3” value (0.5μM, third assay) was 2.6665. The “OD490 value, Mean” value (1μM, first assay) was 2.4999, the “OD490 value, Well 1” value (1μM, first assay) was 2.4427 and the “OD490 value, Well 2” value (1μM, first assay) was 2.5466. For the same compound, the “OD490 value, Well 3” value (1μM, first assay) was 2.5103, the “OD490 value, Mean” value (1μM, second assay) was 2.6707 and the “OD490 value, Well 1” value (1μM, second assay) was 2.6654. The “OD490 value, Well 2” value (1μM, second assay) was 2.6879, the “OD490 value, Well 3” value (1μM, second assay) was 2.6588 and the “OD490 value, Mean” value (1μM, third assay) was 2.5654. The “OD490 value, Well 1” value (1μM, third assay) was 2.6540, the “OD490 value, Well 2” value (1μM, third assay) was 2.5421 and the “OD490 value, Well 3” value (1μM, third assay) was 2.5000. The “OD490 value, Mean” value (10μM, first assay) was 2.7063, the “OD490 value, Well 1” value (10μM, first assay) was 2.6331 and the “OD490 value, Well 2” value (10μM, first assay) was 2.7562. For the same compound, the “OD490 value, Well 3” value (10μM, first assay) was 2.7295, the “OD490 value, Mean” value (10μM, second assay) was 2.7726 and the “OD490 value, Well 1” value (10μM, second assay) was 2.6985. For the same compound, the “OD490 value, Well 2” value (10μM, second assay) was 2.7856, the “OD490 value, Well 3” value (10μM, second assay) was 2.8336 and the “OD490 value, Mean” value (10μM, third assay) was 2.5863. For the same compound, the “OD490 value, Well 1” value (10μM, third assay) was 2.3545, the “OD490 value, Well 2” value (10μM, third assay) was 2.7454 and the “OD490 value, Well 3” value (10μM, third assay) was 2.6589. The “OD490 value, Mean” value (25μM, first assay) was 2.5844, the “OD490 value, Well 1” value (25μM, first assay) was 2.5014 and the “OD490 value, Well 2” value (25μM, first assay) was 2.5977. For the same compound, the “OD490 value, Well 3” value (25μM, first assay) was 2.6541, the “OD490 value, Mean” value (25μM, second assay) was 2.6351 and the “OD490 value, Well 1” value (25μM, second assay) was 2.6354. For the same compound, the “OD490 value, Well 2” value (25μM, second assay) was 2.6289, the “OD490 value, Well 3” value (25μM, second assay) was 2.6410 and the “OD490 value, Mean” value (25μM, third assay) was 2.6063. The “OD490 value, Well 1” value (25μM, third assay) was 2.5658, the “OD490 value, Well 2” value (25μM, third assay) was 2.6542 and the “OD490 value, Well 3” value (25μM, third assay) was 2.5988. The “OD490 value, Mean” value (50μM, first assay) was 2.4897, the “OD490 value, Well 1” value (50μM, first assay) was 2.2013 and the “OD490 value, Well 2” value (50μM, first assay) was 2.5633. For the same compound, the “OD490 value, Well 3” value (50μM, first assay) was 2.7046, the “OD490 value, Mean” value (50μM, second assay) was 2.4794 and the “OD490 value, Well 1” value (50μM, second assay) was 2.5532. The “OD490 value, Well 2” value (50μM, second assay) was 2.4198, the “OD490 value, Well 3” value (50μM, second assay) was 2.4652 and the “OD490 value, Mean” value (50μM, third assay) was 2.5366. The “OD490 value, Well 1” value (50μM, third assay) was 2.4650, the “OD490 value, Well 2” value (50μM, third assay) was 2.5462 and the “OD490 value, Well 3” value (50μM, third assay) was 2.5985. The “OD490 value, Mean” value (100μM, first assay) was 1.9103, the “OD490 value, Well 1” value (100μM, first assay) was 1.9024 and the “OD490 value, Well 2” value (100μM, first assay) was 1.9524. The “OD490 value, Well 3” value (100μM, first assay) was 1.8761, the “OD490 value, Mean” value (100μM, second assay) was 2.0041 and the “OD490 value, Well 1” value (100μM, second assay) was 2.0124. For the same compound, the “OD490 value, Well 2” value (100μM, second assay) was 2.0036, the “OD490 value, Well 3” value (100μM, second assay) was 1.9963 and the “OD490 value, Mean” value (100μM, third assay) was 1.9351. The “OD490 value, Well 1” value (100μM, third assay) was 1.8989, the “OD490 value, Well 2” value (100μM, third assay) was 1.9478 and the “OD490 value, Well 3” value (100μM, third assay) was 1.9587. The IC50 was > 150 µM.
For CCOC(=O)c1[nH]c(C2NC(=S)NC(C)=C2C(=O)OC)c(C(=O)OCC)c1C (centres unmarked) [D12], the “OD490 value, Mean” value (0.5μM, first assay) was 2.4447, the “OD490 value, Well 1” value (0.5μM, first assay) was 2.5235 and the “OD490 value, Well 2” value (0.5μM, first assay) was 2.4821. The “OD490 value, Well 3” value (0.5μM, first assay) was 2.3285, the “OD490 value, Mean” value (0.5μM, second assay) was 2.5426 and the “OD490 value, Well 1” value (0.5μM, second assay) was 2.5366. For the same compound, the “OD490 value, Well 2” value (0.5μM, second assay) was 2.2547, the “OD490 value, Well 3” value (0.5μM, second assay) was 2.8365 and the “OD490 value, Mean” value (0.5μM, third assay) was 2.6167. The “OD490 value, Well 1” value (0.5μM, third assay) was 2.6535, the “OD490 value, Well 2” value (0.5μM, third assay) was 2.5478 and the “OD490 value, Well 3” value (0.5μM, third assay) was 2.6489. The “OD490 value, Mean” value (1μM, first assay) was 2.3871, the “OD490 value, Well 1” value (1μM, first assay) was 2.4815 and the “OD490 value, Well 2” value (1μM, first assay) was 2.2707. The “OD490 value, Well 3” value (1μM, first assay) was 2.4090, the “OD490 value, Mean” value (1μM, second assay) was 2.5625 and the “OD490 value, Well 1” value (1μM, second assay) was 2.5302. The “OD490 value, Well 2” value (1μM, second assay) was 2.5698, the “OD490 value, Well 3” value (1μM, second assay) was 2.5874 and the “OD490 value, Mean” value (1μM, third assay) was 2.6475. The “OD490 value, Well 1” value (1μM, third assay) was 2.5896, the “OD490 value, Well 2” value (1μM, third assay) was 2.6985 and the “OD490 value, Well 3” value (1μM, third assay) was 2.6543. The “OD490 value, Mean” value (10μM, first assay) was 2.6552, the “OD490 value, Well 1” value (10μM, first assay) was 2.5708 and the “OD490 value, Well 2” value (10μM, first assay) was 2.6029. The “OD490 value, Well 3” value (10μM, first assay) was 2.7920, the “OD490 value, Mean” value (10μM, second assay) was 2.5779 and the “OD490 value, Well 1” value (10μM, second assay) was 2.5898. For the same compound, the “OD490 value, Well 2” value (10μM, second assay) was 2.5741, the “OD490 value, Well 3” value (10μM, second assay) was 2.5698 and the “OD490 value, Mean” value (10μM, third assay) was 2.6011. For the same compound, the “OD490 value, Well 1” value (10μM, third assay) was 2.5898, the “OD490 value, Well 2” value (10μM, third assay) was 2.6635 and the “OD490 value, Well 3” value (10μM, third assay) was 2.5501. The “OD490 value, Mean” value (25μM, first assay) was 2.2305, the “OD490 value, Well 1” value (25μM, first assay) was 2.2367 and the “OD490 value, Well 2” value (25μM, first assay) was 2.1978. For the same compound, the “OD490 value, Well 3” value (25μM, first assay) was 2.2571, the “OD490 value, Mean” value (25μM, second assay) was 2.5197 and the “OD490 value, Well 1” value (25μM, second assay) was 2.5698. The “OD490 value, Well 2” value (25μM, second assay) was 2.5525, the “OD490 value, Well 3” value (25μM, second assay) was 2.4369 and the “OD490 value, Mean” value (25μM, third assay) was 2.6373. The “OD490 value, Well 1” value (25μM, third assay) was 2.6859, the “OD490 value, Well 2” value (25μM, third assay) was 2.5363 and the “OD490 value, Well 3” value (25μM, third assay) was 2.6896. The “OD490 value, Mean” value (50μM, first assay) was 2.5183, the “OD490 value, Well 1” value (50μM, first assay) was 2.3673 and the “OD490 value, Well 2” value (50μM, first assay) was 2.6584. The “OD490 value, Well 3” value (50μM, first assay) was 2.5291, the “OD490 value, Mean” value (50μM, second assay) was 2.5474 and the “OD490 value, Well 1” value (50μM, second assay) was 2.4652. The “OD490 value, Well 2” value (50μM, second assay) was 2.5569, the “OD490 value, Well 3” value (50μM, second assay) was 2.6201 and the “OD490 value, Mean” value (50μM, third assay) was 2.5184. For the same compound, the “OD490 value, Well 1” value (50μM, third assay) was 2.4365, the “OD490 value, Well 2” value (50μM, third assay) was 2.5532 and the “OD490 value, Well 3” value (50μM, third assay) was 2.5654. For the same compound, the “OD490 value, Mean” value (100μM, first assay) was 2.3367, the “OD490 value, Well 1” value (100μM, first assay) was 2.4110 and the “OD490 value, Well 2” value (100μM, first assay) was 2.1799. For the same compound, the “OD490 value, Well 3” value (100μM, first assay) was 2.4192, the “OD490 value, Mean” value (100μM, second assay) was 2.4086 and the “OD490 value, Well 1” value (100μM, second assay) was 2.3674. For the same compound, the “OD490 value, Well 2” value (100μM, second assay) was 2.4214, the “OD490 value, Well 3” value (100μM, second assay) was 2.4369 and the “OD490 value, Mean” value (100μM, third assay) was 2.3047. The “OD490 value, Well 1” value (100μM, third assay) was 2.1753, the “OD490 value, Well 2” value (100μM, third assay) was 2.3324 and the “OD490 value, Well 3” value (100μM, third assay) was 2.4065. For the same compound, the IC50 was > 150 µM.
